Tested on: subjects with major depressive disorder (MDD) who were inadequate responders to citalopram
Assay: SDS (Sheehan Disability Scale), Phase 2b add-on trial
Type: in vivo, human
Conditions: for SDS Difference vs placebo / SDS Adj. Mean change: ITT; for SDS Difference vs placebo: Week 8 to Week 16 LOCF; for SDS Adj. Mean change: change from Week 8 (double-blind baseline) to Week 16 LOCF, add-on to citalopram
Excerpt: The Sheehan Disability Scale (SDS) is widely used not only in psychiatry but also in many other chronic medical illnesses because of its generic design. It measures impairment in functioning. The scale generates 4 scores: a work disability score, a social life disability score, a family life disability score and a total score. A total score is generated through addition of the 3 individual scores (work: social life: family life). The maximum possible score is 30. In more detail, a multi-center double-blind, randomized, placebo-controlled, parallel group, flexible dose titration study of TC-5214 as adjunctive therapy in subjects with major depressive disorder (MDD) who were inadequate responders to citalopram was conducted in centers in the US and India. The study consisted of a screening period, baseline/washout period, open-label phase, double-blind phase, and a follow-up visit. Subject participation in the study could continue for up to 16 weeks of treatment. Following a washout period of up to 28 days for other antidepressants, subjects with MDD and a MADRS total score >/=28 and a Clinical Global Impression-Severity (CGI-S) score >/=4 were enrolled on Day 1 into an open-label citalopram-only phase of the study. This phase lasted 8 weeks, with citalopram (CIT) dose increased from a once-daily dose of 20 mg (Day 1 through Week 4) to 40 mg (Week 4 through Week 8). A total of 579 subjects entered the open-label citalopram phase. At Week 8, subjects who tolerated 40 mg CIT, but whose MADRS score was reduced <50% from baseline and no lower than 17, and CGI-S≧4, were considered inadequate responders. These subjects (n=270) were randomized in a double-blind fashion to receive either placebo or TC-5214-23 as add-on therapy to continued CIT. The double-blind phase of the study also lasted 8 weeks (Week 8 to Week 16). Study drug, TC-5214-23 or placebo, was started at 2 mg daily (1 mg twice per day [BID] dosing), added on to continuing CIT (40 mg PO qd). After 2 weeks of treatment, the dose of TC-5214 could be increased to 4 mg (2 mg BID) or continued unchanged, with up-titration based upon good tolerability and inadequate therapeutic response. After a further 2 weeks, the dose of TC-5214 could be increased again to 8 mg (4 mg BID) if judged appropriate by the investigator, based upon good tolerability and inadequate therapeutic response. At any time during the double-blind phase of the study, placebo or TC-5214-23 could be reduced to the previous dose level following the emergence of unacceptable adverse events (AEs). […] At this follow-up, any signs or symptoms of relapse were evaluated. If a subject was prematurely discontinued from the study between Week 8 and Week 16 for any reason, the investigator was to make every effort to perform all evaluations as per protocol, assuming the subject had reached the end of the double-blind add-on treatment phase. These evaluations were to be made as soon as possible and within 2 weeks of discontinuation. […] There was no meaningful difference in results as a function of age, gender, site, or smoking status. With regard to efficacy endpoints, the following tables present efficacy used in the ITT (Intent-to-Treat) and PP (Per Protocol) populations unless otherwise specific. The primary inference was based upon Week 16 visit using the ITT population. Change from baseline was obtained by subtracting the baseline values from the individual on-treatment values. Change from Week 16 was obtained by subtracting the Week 16 values from the individual follow-up visit (Week 18/19) values. If either the baseline or Week 16 or on-treatment or follow-up value was missing, the change from baseline or Week 16 value was also set to missing. To account for missing data, the last observation carry forward (LOCF) method was used for the ITT and PP populations. […]

[1] = ITT Population, Double Blind Week 16 LOCF, change from Week 8 (double-blind baseline)
[2] = ITT Population, Double Blind Week 18 LOCF (Follow-up)
[3] = ITT and PP populations, result in words
[4] = PP Population, Double Blind Week 16 LOCF, change from Week 8 (double-blind baseline)
[5] = PP Population, Double Blind Week 18 LOCF (Follow-up)

CNC1(C)C2CCC(C2)C1(C)C (stereo in doubt) [TC-5214, (S)—N,2,3,3-tetramethylnorbornan-2-amine]
SDS change Adjusted Mean [1]: −9.18
SDS change Mean Difference between TC-5214 and Placebo [1]: 4.60
SDS change Adjusted Mean [2]: −0.46
SDS change Mean Difference between TC-5214 and Placebo [2]: −0.23
SDS individual items (Work-School; Social Life; Life-Home Responsibilities) change from baseline compared with placebo [3]: statistically significant decreases (improvements)
SDS score change from baseline compared with placebo [3]: statistically significant decreases (improvements)
SDS Difference vs placebo: −4.49 (−5.96, −3.01)
SDS Difference vs placebo (listed as TC-5214 + CIT): −4.49
SDS Adj. Mean change: −9.18 (0.53)
SDS Adj. Mean change (listed as TC-5214 + CIT): −9.18
SDS change Adjusted Mean [4]: −10.21
SDS change Mean Difference between TC-5214 and Placebo [4]: 4.86
SDS change Adjusted Mean [5]: −0.44
SDS change Mean Difference between TC-5214 and Placebo [5]: −0.20
